Marks after values point to notes of the source that are not given here.
Tested on: heart DNA
Experiment: Bulky DNA adducts by 32P postlabeling, Study 2, heart
Type: in vivo, ICR (CD-1) mice
Conditions: for Bulky DNA adducts: Heart; for decrease of DNA adduct levels vs MCS-exposed mice without celecoxib / increase of DNA adduct levels over sham-exposed mice: heart
Method: Each group was composed of 10 female mice.
DNA was extracted from tissue specimens (50 mg) collected individually from the lungs of 40 Swiss H mice used in Study 1 and from lungs, heart and liver of 80 ICR (CD-1) mice used in Study 2, as previously described. Bulky DNA adducts, after butanol enrichment, and 8-hydroxy-2’-deoxyguanosine (8-oxo-dGuo) were measured by ^32P postlabeling as previously described.

Cc1ccc(-c2cc(C(F)(F)F)nn2-c2ccc(S(N)(=O)=O)cc2)cc1 [Celecoxib, 4-[5-(4-methylphenyl)-3-(trifluoromethyl)-1H-pyrazol-1-yl] benzene-1-sulfonamide]
Bulky DNA adducts (F): 3.6 ± 0.37^c adducts/10^8 nucleotides
Bulky DNA adducts (M): 3.3 ± 0.18^c adducts/10^8 nucleotides
Bulky DNA adducts (M + F): 3.4 ± 0.17^c adducts/10^8 nucleotides
decrease of DNA adduct levels vs MCS-exposed mice without celecoxib (combined genders): 1.3 fold
decrease of DNA adduct levels vs MCS-exposed mice without celecoxib (females): 1.5 fold
decrease of DNA adduct levels vs MCS-exposed mice without celecoxib (males (not statistically significant)): 1.1 fold
increase of DNA adduct levels over sham-exposed mice (combined genders): 2.2 fold
increase of DNA adduct levels over sham-exposed mice (females): 2.4 fold
increase of DNA adduct levels over sham-exposed mice (males): 2.1 fold
